# Assays:
# Assay type in all cases: biochemical
# Aurora A = molecular target: T1, Aurora A (Homo sapiens, UniProt O14965); test: Counter-screen against Aurora A; conditions: read-out: AUR-A (IC50)
# T1 sequence (O14965 1-403): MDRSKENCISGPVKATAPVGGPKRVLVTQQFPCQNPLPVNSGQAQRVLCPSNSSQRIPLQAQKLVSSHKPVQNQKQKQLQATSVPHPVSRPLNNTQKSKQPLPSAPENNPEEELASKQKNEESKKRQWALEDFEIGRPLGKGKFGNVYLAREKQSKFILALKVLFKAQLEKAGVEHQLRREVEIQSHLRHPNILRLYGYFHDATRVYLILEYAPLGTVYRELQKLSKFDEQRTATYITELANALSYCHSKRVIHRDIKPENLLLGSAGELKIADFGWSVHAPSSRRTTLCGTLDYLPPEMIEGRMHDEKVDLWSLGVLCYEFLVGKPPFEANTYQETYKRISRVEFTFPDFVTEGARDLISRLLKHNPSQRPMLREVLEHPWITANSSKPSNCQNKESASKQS
# Outline: (§1)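 Full-length recombinant NUAK2 incubated 40 min at room temperature in 8 mM MOPS pH 7.0, 0.2 mM EDTA, 10 mM magnesium acetate, 300 μM peptide substrate and 33P-ATP. Stopped with 0.5% phosphoric acid; filter-bound label counted by scintillation. IC50 reported as ranges; NUAK1 and Aurora A served as counter-screens.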
# NUAK2 (h) = molecular target: T2, NUAK2 (h) (Homo sapiens, UniProt Q9H093); test: NUAK2 enzymatic assay (radiometric, Eurofins); conditions: full-length recombinant enzyme
# T2 construct: This assay was done radiometrically using full-length, recombinant enzyme; purchased Eurofins
# T2 sequence (Q9H093 1-628): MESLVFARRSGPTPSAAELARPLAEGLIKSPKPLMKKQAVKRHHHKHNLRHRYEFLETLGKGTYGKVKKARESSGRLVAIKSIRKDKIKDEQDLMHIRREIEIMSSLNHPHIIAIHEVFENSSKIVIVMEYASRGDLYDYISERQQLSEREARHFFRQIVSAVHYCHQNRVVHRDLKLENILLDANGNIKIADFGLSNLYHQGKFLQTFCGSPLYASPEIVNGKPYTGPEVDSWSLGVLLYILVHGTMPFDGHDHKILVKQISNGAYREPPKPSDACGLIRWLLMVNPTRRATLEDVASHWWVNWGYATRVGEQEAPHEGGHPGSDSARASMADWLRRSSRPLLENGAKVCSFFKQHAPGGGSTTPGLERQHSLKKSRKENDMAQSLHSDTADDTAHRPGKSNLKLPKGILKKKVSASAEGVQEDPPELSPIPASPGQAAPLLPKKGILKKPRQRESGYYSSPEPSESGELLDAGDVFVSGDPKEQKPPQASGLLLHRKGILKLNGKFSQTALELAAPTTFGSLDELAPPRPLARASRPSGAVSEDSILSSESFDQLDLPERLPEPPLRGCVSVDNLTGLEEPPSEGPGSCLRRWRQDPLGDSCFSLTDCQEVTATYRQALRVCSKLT
# Outline: as §1
# NUAK1 = molecular target: T3, NUAK1 (Homo sapiens, UniProt O60285); test: Counter-screen against NUAK1
# T3 sequence (O60285 1-661): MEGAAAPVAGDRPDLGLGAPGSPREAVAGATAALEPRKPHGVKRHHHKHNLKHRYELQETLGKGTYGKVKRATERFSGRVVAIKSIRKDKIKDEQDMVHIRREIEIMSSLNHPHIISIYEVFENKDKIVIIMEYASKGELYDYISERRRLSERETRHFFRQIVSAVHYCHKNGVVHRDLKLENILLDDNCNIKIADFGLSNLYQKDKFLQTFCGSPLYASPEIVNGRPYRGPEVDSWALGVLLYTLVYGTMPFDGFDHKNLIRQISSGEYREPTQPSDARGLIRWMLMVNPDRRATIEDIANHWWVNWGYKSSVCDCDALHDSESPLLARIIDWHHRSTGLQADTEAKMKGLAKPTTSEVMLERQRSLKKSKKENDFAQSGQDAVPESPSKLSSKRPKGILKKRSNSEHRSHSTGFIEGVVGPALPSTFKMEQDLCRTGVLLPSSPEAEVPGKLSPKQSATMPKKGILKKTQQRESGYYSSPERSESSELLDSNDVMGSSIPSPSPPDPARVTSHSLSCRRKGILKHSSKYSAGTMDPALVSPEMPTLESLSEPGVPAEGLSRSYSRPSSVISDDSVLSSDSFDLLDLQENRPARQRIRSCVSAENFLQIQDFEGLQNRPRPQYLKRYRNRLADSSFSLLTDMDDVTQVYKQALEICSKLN
# Outline: as §1
SMILES,IC50 (Aurora A),IC50 (NUAK2 (h)),IC50 (NUAK1)
"C[C@@H]1CN(c2ccc(Nc3ncc(C(F)(F)F)c(Nc4cccc5c4C(=O)NC5)n3)c(OC(F)F)c2)CCN1 [Compound I-57, (R)-7-((2-((2-(difluoromethoxy)-4-(3-methylpiperazin-1-yl)phenyl)amino)-5-(trifluoromethyl)pyrimidin-4-yl)amino)isoindolin-1-one]",> 1000 nM,0.1 to 10 nM,11 to 100 nM
"O=C1NCc2cccc(Nc3nc(Nc4ccc(N5CCC6(CCNCC6)CC5)cc4OC(F)F)ncc3C(F)(F)F)c21 [Compound I-58, 7-((2-((2-(difluoromethoxy)-4-(3,9-diazaspiro[5.5]undecan-3-yl)phenyl)amino)-5-(trifluoromethyl)pyrimidin-4-yl)amino)isoindolin-1-one]",101 to 1000 nM,11 to 100 nM,11 to 100 nM
"O=C1NCc2cccc(Nc3nc(Nc4ccc(N5CCOCC5)cc4OC(F)F)ncc3C(F)(F)F)c21 [Compound I-60, 7-((2-((2-(difluoromethoxy)-4-morpholinophenyl)amino)-5-(trifluoromethyl)pyrimidin-4-yl)amino)isoindolin-1-one]",101 to 1000 nM,11 to 100 nM,11 to 100 nM
"CCN(CC)CCOc1ccc(Nc2ncc(C(F)(F)F)c(Nc3cccc4c3C(=O)NC4)n2)cc1 [Compound I-61, 7-((2-((4-(2-(diethylamino)ethoxy)phenyl)amino)-5-(trifluoromethyl)pyrimidin-4-yl)amino)isoindolin-1-one]",101 to 1000 nM,11 to 100 nM,11 to 100 nM
"CCN(CC)CCOc1ccc(Nc2ncc(Cl)c(Nc3cccc4c3C(=O)NC4)n2)cc1 [Compound I-62, 7-((5-chloro-2-((4-(2-(diethylamino)ethoxy)phenyl)amino)pyrimidin-4-yl)amino)isoindolin-1-one]",11 to 100 nM,0.1 to 10 nM,0.1 to 10 nM
"O=C1NCc2cccc(Nc3nc(Nc4ccc(N5C[C@H]6CC[C@@H](C5)N6)cc4OC(F)F)ncc3Cl)c21 [Compound I-64, 7-((2-((4-((1R,5S)-3,8-diazabicyclo[3.2.1]octan-3-yl)-2-(difluoromethoxy)phenyl)amino)-5-chloropyrimidin-4-yl)amino)isoindolin-1-one]",> 1000 nM,0.1 to 10 nM,11 to 100 nM
"CC1(C)CN(c2ccc(Nc3ncc(C(F)(F)F)c(Nc4cccc5c4C(=O)NC5)n3)c(OC(F)F)c2)CCN1 [Compound I-65, 7-((2-((2-(difluoromethoxy)-4-(3,3-dimethylpiperazin-1-yl)phenyl)amino)-5-(trifluoromethyl)pyrimidin-4-yl)amino)isoindolin-1-one]",101 to 1000 nM,0.1 to 10 nM,101 to 1000 nM
"O=C1NCc2cccc(Nc3nc(Nc4ccc(N5C[C@@H]6C[C@H]5CN6)cc4OC(F)F)ncc3Cl)c21 [Compound I-66, 7-((2-((4-((1S,4S)-2,5-diazabicyclo[2.2.1]heptan-2-yl)-2-(difluoromethoxy)phenyl)amino)-5-chloropyrimidin-4-yl)amino)isoindolin-1-one]",101 to 1000 nM,0.1 to 10 nM,11 to 100 nM
"O=C1NCc2cccc(Nc3nc(Nc4ccc(N5CCC(N6CCNCC6)CC5)cc4OC(F)F)ncc3Cl)c21 [Compound I-67, 7-((5-chloro-2-((2-(difluoromethoxy)-4-(4-(piperazin-1-yl)piperidin-1-yl)phenyl)amino)pyrimidin-4-yl)amino)isoindolin-1-one]",101 to 1000 nM,0.1 to 10 nM,11 to 100 nM
"COc1nc(N2CCN(C)CC2)ccc1Nc1ncc(C(F)(F)F)c(Nc2cccc3c2C(=O)NC3)n1 [Compound I-68, 7-((2-((2-methoxy-6-(4-methylpiperazin-1-yl)pyridin-3-yl)amino)-5-(trifluoromethyl)pyrimidin-4-yl)amino)isoindolin-1-one]",101 to 1000 nM,0.1 to 10 nM,11 to 100 nM
"CN1CCCN(C2CCN(c3ccc(Nc4ncc(C(F)(F)F)c(Nc5cccc6c5C(=O)NC6)n4)c(OC(F)F)c3)CC2)CC1 [Compound I-69, 7-((2-((2-(difluoromethoxy)-4-(4-(4-methyl-1,4-diazepan-1-yl)piperidin-1-yl)phenyl)amino)-5-(trifluoromethyl)pyrimidin-4-yl)amino)isoindolin-1-one]",101 to 1000 nM,0.1 to 10 nM,11 to 100 nM
"O=C1NCc2cccc(Nc3nc(Nc4ccc(N5[C@@H]6CC[C@H]5CNC6)cc4OC(F)F)ncc3C(F)(F)F)c21 [Compound I-70, 7-((2-((4-((1R,5S)-3,8-diazabicyclo[3.2.1]octan-8-yl)-2-(difluoromethoxy)phenyl)amino)-5-(trifluoromethyl)pyrimidin-4-yl)amino)isoindolin-1-one]",101 to 1000 nM,0.1 to 10 nM,11 to 100 nM
"O=C1NCc2cccc(Nc3nc(Nc4ccc(N5C[C@H]6C[C@@H]5CN6)cc4OC(F)F)ncc3C(F)(F)F)c21 [Compound I-71, 7-((2-((4-((1R,4R)-2,5-diazabicyclo[2.2.1]heptan-2-yl)-2-(difluoromethoxy)phenyl)amino)-5-(trifluoromethyl)pyrimidin-4-yl)amino)isoindolin-1-one]",101 to 1000 nM,0.1 to 10 nM,11 to 100 nM
"O=C1NCc2cccc(Nc3nc(Nc4ccc(N5C[C@H]6C[C@@H]5CN6)cc4OC(F)F)ncc3Cl)c21 [Compound I-72, 7-((2-((4-((1R,4R)-2,5-diazabicyclo[2.2.1]heptan-2-yl)-2-(difluoromethoxy)phenyl)amino)-5-chloropyrimidin-4-yl)amino)isoindolin-1-one]",101 to 1000 nM,0.1 to 10 nM,11 to 100 nM
"CC(C)N1C[C@@H]2C[C@H]1CN2c1ccc(Nc2ncc(C(F)(F)F)c(Nc3cccc4c3C(=O)NC4)n2)c(OC(F)F)c1 [Compound I-73, 7-((2-((2-(difluoromethoxy)-4-((1S,4S)-5-isopropyl-2,5-diazabicyclo[2.2.1]heptan-2-yl)phenyl)amino)-5-(trifluoromethyl)pyrimidin-4-yl)amino)isoindolin-1-one]",101 to 1000 nM,0.1 to 10 nM,0.1 to 10 nM
"O=C1NCc2cccc(Nc3nc(Nc4ccc(N5CCCNCC5)cc4OC(F)F)ncc3Cl)c21 [Compound I-74, 7-((2-((4-(1,4-diazepan-1-yl)-2-(difluoromethoxy)phenyl)amino)-5-chloropyrimidin-4-yl)amino)isoindolin-1-one]",101 to 1000 nM,0.1 to 10 nM,11 to 100 nM
"O=C1NCc2cccc(Nc3nc(Nc4ccc(N5[C@@H]6CC[C@H]5CNC6)cc4OC(F)F)ncc3Cl)c21 [Compound I-75, 7-((2-((4-((1R,5S)-3,8-diazabicyclo[3.2.1]octan-8-yl)-2-(difluoromethoxy)phenyl)amino)-5-chloropyrimidin-4-yl)amino)isoindolin-1-one]",0.1 to 10 nM,0.1 to 10 nM,0.1 to 10 nM
"O=C1NCc2cccc(Nc3nc(Nc4ccc(N5C[C@H]6CNC[C@H]6C5)cc4OC(F)F)ncc3Cl)c21 [Compound I-76, 7-((5-chloro-2-((2-(difluoromethoxy)-4-((3aR,6aS)-hexahydropyrrolo[3,4-c]pyrrol-2(1H)-yl)phenyl)amino)pyrimidin-4-yl)amino)isoindolin-1-one]",101 to 1000 nM,0.1 to 10 nM,11 to 100 nM

# Reference: patent US12643886B2 (Ontario Institute for Cancer Research (OICR), priority 2021, dated 2026)
